In patent US8629282B2, “Heterocyclic compounds as S1P1 agonists for the treatment of autoimmune and vascular diseases” (Bristol-Myers Squibb Company, priority 2010, dated 2014):
pEC50, pIC50: −log10 of the molar value. Marks after values point to notes of the source that are not given here.

Key:
[1] = target: human S1P1 (Homo sapiens (Human), UniProt P21453); test: S1P1 Binding Assay (33P-S1P radioligand competition); conditions: membranes of CHO cells expressing human S1P1, 0.03 nM 33P-S1P; rounded to two digits
Description: Membranes were prepared from CHO cells expressing human S1P1. Cells were dissociated in buffer containing 20 mM HEPES, pH 7.5, 50 mM NaCl, 2 mM EDTA and Protease Inhibitor cocktail (Roche), and disrupted on ice using the Polytron homogenizer. The homogenate was centrifuged at 20,000 rpm (48,000 G) and the supernatant was discarded. The membrane pellets were resuspended in buffer containing 50 mM HEPES, pH 7.5, 100 mM NaCl, 1 mM MgCl2, 2 mM EDTA and stored in aliquots at −80° C. after protein concentration determination.
Membranes (2 μg/well) and 0.03 nM final concentration of 33P-S1P ligand (1 mCi/ml, American Radiolabeled Chemicals) were added to the compound plates. Binding was performed for 45 minutes at room temperature, terminated by collecting the membranes onto GF/B filter plates, and radioactivity was measured by TOPCOUNT®. The competition data of the test compounds over a range of concentrations was plotted as percentage inhibition of radioligand specific binding. The IC50 is defined as the concentration of competing ligand needed to reduce specific binding by 50%.
The results in Table A were rounded to two digits.

[2] = target: S1P1 (membranes from S1P1/CHO cells) (Homo sapiens (Human), UniProt P21453); test: Receptor [35S] GTPγS Binding Assay, S1P1; type: biochemical; conditions: for pEC50: S1P1/CHO membranes; for GTPγS S1P3/S1P1 (ratio of GTPγS S1P3 EC50 to GTPγS S1P1 EC50): calculated from Table B, S1P3 detection limit 31250 nM
Description: (§1) Receptor [35S] GTPγS Binding Assays
(§2) Compounds were loaded in a 384 FALCON® v-bottom plate (0.5 μl/well in a 3-fold dilution). Membranes prepared from S1P1/CHO cells or EDG3-Ga15-bla HEK293T cells were added to the compound plate (40 μl/well, final protein 3 μg/well) with MULTIDROP®. [^35S]GTP (1250 Ci/mmol, Perkin Elmer) was diluted in assay buffer: 20 mM HEPES, pH7.5, 10 mM MgCl2, 150 mM NaCl, 1 mM EGTA, 1 mM DTT, 10 μM GDP, 0.1% fatty acid free BSA, and 10 μg/ml Saponin to 0.4 nM. 40 μl of the [^35S] GTP solution was added to the compound plate with a final concentration of 0.2 nM. The reaction was kept at room temperature for 45 min. At the end of incubation, all the mixtures in the compound plate were transferred to a 384 well FB filter plates via GPCR robot system. The filter plate was washed with water 4 times by using the modified manifold Embla plate washer and dried at 60° C. for 45 min. 30 μl of MicroScint 20 scintillation fluid was added to each well for counting at Packard TOPCOUNT®. EC50 is defined as the agonist concentration that corresponds to 50% of the Ymax (maximal response) obtained for each individual compound tested.
A larger value for the GTPγS S1P3 EC50 value indicated less activity in the GTPγS S1P3 binding assay.

[3] = target: S1P3 (membranes from EDG3-Ga15-bla HEK293T cells) (Homo sapiens (Human), UniProt Q99500); test: Receptor [35S] GTPγS Binding Assay, S1P3; type: biochemical; conditions: detection limit 31250 nM
Description: as §1, §2
A smaller value for GTPγS S1P1 EC50 value indicated greater activity for the compound in the GTPγS S1P1 binding assay. A larger value for the GTPγS S1P3 EC50 value indicated less activity in the GTPγS S1P3 binding assay.

[4] = tested on: circulating blood lymphocytes; test: Blood Lymphocyte Reduction Assay (BLR) in Rodents; type: in vivo; conditions: Lewis rats, oral, vs vehicle group
Description: Blood Lymphocyte Reduction Assay (BLR) in Rodents
Lewis rats were dosed orally with test article (as a solution or suspension in the vehicle) or vehicle alone (polyethylene glycol 300, “PEG300”). Blood was drawn at 4 hr by retro-orbital bleeding. Blood lymphocyte counts were determined on an ADVIA® 120 Hematology Analyzer (Siemens Healthcare Diagnostics). The results were measured as a reduction in the percentage of circulating lymphocytes as compared to the vehicle treated group at the 4 hr measurement. The results represent the average results of all animals within each treatment group (n=3-4).
The following examples were tested in the Blood Lymphocyte Reduction assay (BLR) described herein above and the results are shown in Table D for rats.

Sequence of S1P3 (membranes from EDG3-Ga15-bla HEK293T cells) (Q99500 whole entry): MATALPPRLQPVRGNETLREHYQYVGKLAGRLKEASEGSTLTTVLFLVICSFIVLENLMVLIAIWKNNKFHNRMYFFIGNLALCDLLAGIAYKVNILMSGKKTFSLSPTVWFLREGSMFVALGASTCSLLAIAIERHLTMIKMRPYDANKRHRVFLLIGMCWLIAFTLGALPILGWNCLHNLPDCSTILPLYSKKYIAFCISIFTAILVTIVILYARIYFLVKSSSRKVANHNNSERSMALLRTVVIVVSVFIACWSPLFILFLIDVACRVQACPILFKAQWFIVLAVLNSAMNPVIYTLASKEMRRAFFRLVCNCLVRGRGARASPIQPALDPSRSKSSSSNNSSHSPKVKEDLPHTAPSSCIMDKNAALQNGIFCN
Sequence of human S1P1 (P21453 whole entry): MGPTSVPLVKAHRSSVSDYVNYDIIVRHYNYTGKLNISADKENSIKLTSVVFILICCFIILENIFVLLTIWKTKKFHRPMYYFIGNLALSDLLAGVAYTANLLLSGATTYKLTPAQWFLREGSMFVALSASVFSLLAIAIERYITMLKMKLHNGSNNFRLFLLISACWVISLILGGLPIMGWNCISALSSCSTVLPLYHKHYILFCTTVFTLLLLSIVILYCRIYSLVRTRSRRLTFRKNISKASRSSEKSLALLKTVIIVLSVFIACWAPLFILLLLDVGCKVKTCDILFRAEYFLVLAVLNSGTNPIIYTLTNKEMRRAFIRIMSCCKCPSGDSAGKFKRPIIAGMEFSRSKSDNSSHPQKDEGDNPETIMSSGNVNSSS
Sequence of S1P1 (membranes from S1P1/CHO cells) (P21453 whole entry): as above

Structure (SMILES)	pIC50 [1]	pEC50 [2]	pEC50 [3]	GTPγS S1P3/S1P1 (ratio of GTPγS S1P3 EC50 to GTPγS S1P1 EC50) [2]	% Reduction in Lymphocytes at 4 hr. ([4]; 3 mg/kg) [%]	% Reduction in Lymphocytes at 4 hr. ([4]; 0.5 mg/kg) [%]
N[C@@H]1COc2cc(-c3noc(-c4onc(-c5ccccc5)c4C(F)(F)F)n3)ccc2[C@H]1O (racemic) [Example 4, (3R*,4R*)-3-amino-7-(5-(3-phenyl-4-(trifluoromethyl)isoxazol-5-yl)-1,2,4-oxadiazol-3-yl)chroman-4-ol]	7.64	7.10	4.89	–	–	–
N[C@@H]1COc2cc(-c3noc(-c4onc(-c5ccccc5)c4C(F)(F)F)n3)ccc2[C@H]1O (relative stereo) [Example 4, (3R*,4R*)-3-amino-7-(5-(3-phenyl-4-(trifluoromethyl)isoxazol-5-yl)-1,2,4-oxadiazol-3-yl)chroman-4-ol]	–	–	–	160	–	–
CCOC(=O)C1CCCC(N[C@@H]2COc3cc(-c4noc(-c5onc(-c6ccccc6)c5C(F)(F)F)n4)ccc3[C@@H]2O)C1 (relative stereo) [Example 13, ethyl 3-((3R*,4S*)-4-hydroxy-7-(5-(3-phenyl-4-(trifluoromethyl)isoxazol-5-yl)-1,2,4-oxadiazol-3-yl)chroman-3-ylamino)cyclohexanecarboxylate]	6.20	6.80	< 4.51	> 200*	–	–
O=C(O)CC1CCCN([C@@H]2COc3cc(-c4noc(-c5onc(-c6ccccc6)c5C(F)(F)F)n4)ccc3[C@@H]2O)C1 (single isomer, unassigned) [Example 50]	7.24	7.57	4.62	870	–	–
O=C(O)C1(CN[C@@H]2COc3cc(-c4noc(-c5onc(-c6ccccc6)c5C(F)(F)F)n4)ccc3[C@@H]2O)CCCCC1 [Example 39, 1-(((3R,4S)-4-hydroxy-7-(5-(3-phenyl-4-(trifluoromethyl)isoxazol-5-yl)-1,2,4-oxadiazol-3-yl)chroman-3-ylamino)methyl)cyclohexanecarboxylic acid]	6.27	7.07	< 4.51	> 370*	–	–
O=C(O)[C@H]1CCC[C@H](N[C@@H]2COc3cc(-c4noc(-c5onc(-c6ccccc6)c5C(F)(F)F)n4)ccc3[C@@H]2O)C1 [Example 57, (1S,3S)-3-((3R,4S)-4-hydroxy-7-(5-(3-phenyl-4-(trifluoromethyl)isoxazol-5-yl)-1,2,4-oxadiazol-3-yl)chroman-3-ylamino)cyclohexanecarboxylic acid]	9.15	9.00	5.14	7300	–	69
O=C(O)[C@@H]1CCC[C@@H](N[C@@H]2COc3cc(-c4noc(-c5onc(-c6ccccc6)c5C(F)(F)F)n4)ccc3[C@@H]2O)C1 [Example 65, (1R,3R)-3-((3R,4S)-4-hydroxy-7-(5-(3-phenyl-4-(trifluoromethyl)isoxazol-5-yl)-1,2,4-oxadiazol-3-yl)chroman-3-ylamino)cyclohexanecarboxylic acid]	8.18	8.96	4.96	9600	–	55

Further lines, with some results ahead:

pIC50 [1]	pEC50 [2]	pEC50 [3]	GTPγS S1P3/S1P1 (ratio of GTPγS S1P3 EC50 to GTPγS S1P1 EC50) [2]	Structure (SMILES)	% Reduction in Lymphocytes at 4 hr. ([4]; 3 mg/kg) [%]	% Reduction in Lymphocytes at 4 hr. ([4]; 0.5 mg/kg) [%]
–	–	4.60	–	O=C(O)CCN[C@H]1COc2cc(-c3noc(-c4onc(-c5ccccc5)c4C(F)(F)F)n3)ccc2[C@@H]1O (racemic) [Example 5, 3-((3R*,4R*)-4-hydroxy-7-(5-(3-phenyl-4-(trifluoromethyl)isoxazol-5-yl)-1,2,4-oxadiazol-3-yl)chroman-3-ylamino)propanoic acid]	–	–
7.41	7.48	5.07	260	N[C@@H]1COc2cc(-c3noc(-c4onc(-c5ccccc5)c4C(F)(F)F)n3)ccc2[C@@H]1O [Example 9, (3R,4S)-3-Amino-7-(5-(3-phenyl-4-(trifluoromethyl)isoxazol-5-yl)-1,2,4-oxadiazol-3-yl)chroman-4-ol]	–	–
–	–	4.92	–	O=C(O)[C@H]1C[C@@H](N[C@H]2COc3cc(-c4noc(-c5onc(-c6ccccc6)c5C(F)(F)F)n4)ccc3[C@H]2O)C1 [Example 25, (1R,3S)-3-((3S,4R)-4-hydroxy-7-(5-(3-phenyl-4-(trifluoromethyl)isoxazol-5-yl)-1,2,4-oxadiazol-3-yl)chroman-3-ylamino)cyclobutanecarboxylic acid]	93	–
7.89	8.19	5.10	1200	O=C(O)C1(CN[C@@H]2COc3cc(-c4noc(-c5onc(-c6ccccc6)c5C(F)(F)F)n4)ccc3[C@@H]2O)CC1 [Example 30, 1-(((3R,4S)-4-hydroxy-7-(5-(3-phenyl-4-(trifluoromethyl)isoxazol-5-yl)-1,2,4-oxadiazol-3-yl)chroman-3-ylamino)methyl)cyclopropanecarboxylic acid]	–	–
7.70	7.80	5.08	510	O=C(O)C1(CN[C@@H]2COc3cc(-c4noc(-c5onc(-c6ccccc6)c5C(F)(F)F)n4)ccc3[C@@H]2O)CCC1 [Example 41, 1-(((3R,4S)-4-hydroxy-7-(5-(3-phenyl-4-(trifluoromethyl)isoxazol-5-yl)-1,2,4-oxadiazol-3-yl)chroman-3-ylamino)methyl)cyclobutanecarboxylic acid]	–	11
–	–	4.66	–	O=C(O)CCN[C@@H]1COc2cc(-c3noc(-c4onc(-c5ccccc5)c4C(F)(F)F)n3)ccc2[C@@H]1O [Example 53, 3-((3R,4S)-4-Hydroxy-7-(5-(3-phenyl-4-(trifluoromethyl)isoxazol-5-yl)-1,2,4-oxadiazol-3-yl)chroman-3-ylamino)propanoic acid]	–	–
8.42	8.27	5.28	960	O=C(O)CN[C@@H]1COc2cc(-c3noc(-c4onc(-c5ccccc5)c4C(F)(F)F)n3)ccc2[C@@H]1O [Example 68, 2-((3R,4S)-4-hydroxy-7-(5-(3-phenyl-4-(trifluoromethyl)isoxazol-5-yl)-1,2,4-oxadiazol-3-yl)chroman-3-ylamino)acetic acid]	–	–
